Measurements as given in US6737383B1, “Herbicidal oxadiazolidines” (priority 1999, dated 2004).

Legend:
bedstraw = test: Test B pre/postemergence bedstraw; format: in vivo, Galium aparine
Outline: (§1)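 Herbicidal effect was estimated by eye on a ten-point control scale after plants spent twelve to sixteen days in a greenhouse following soil or foliar treatment. Foliar sprays targeted plants at one to four leaves; all doses were formulated in a non-phytotoxic solvent with surfactant.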

blackgrass [1] = test: Test B pre/postemergence blackgrass; format: in vivo, Alopecurus myosuroides
Outline: as §1

surinam grass = test: Test B pre/postemergence surinam grass; format: in vivo, Brachiaria decumbens
Outline: as §1

smallflower flatsedge = test: Test B flood test smallflower flatsedge; format: in vivo, Cyperus difformis
Outline: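 Each value is a visual injury score relative to controls, with 10 meaning complete control and 0 no effect. Evaluation took place twelve to sixteen days after the 2-leaf-stage plants were treated and kept in the greenhouse.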

winter wheat [2] = test: Test E winter wheat; format: in vivo, Triticum aestivum; settings: Postemergence
Outline: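 Plants were grown under normal greenhouse practice; for postemergence, in sandy loam soil mixed 60:40 with potting mix, treated at the 1- to 4-leaf stage. The compound was in a non-phytotoxic solvent carrying a surfactant. After roughly 21 to 28 days plants were scored visually against untreated plants.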

blackgrass [3] = test: Test E blackgrass; format: in vivo, Alopecurus myosuroides; settings: Preemergence; for Blackgrass plant response rating (0 to 100 scale): Rate 250 g/ha
green foxtail = test: Test E green foxtail; format: in vivo, Setaria viridis; settings: Preemergence; for Green foxtail plant response rating (0 to 100 scale): Rate 250 g/ha
Italian ryegrass = test: Test E Italian ryegrass; format: in vivo, Lolium multiflorum; settings: Preemergence; for I. Ryegrass plant response rating (0 to 100 scale): Rate 250 g/ha
winter wheat [4] = test: Test E winter wheat; format: in vivo, Triticum aestivum; settings: Preemergence; for Wheat (winter) plant response rating (0 to 100 scale): Rate 250 g/ha
wild oat = test: Test E wild oat; format: in vivo, Avena fatua; settings: Preemergence; for Wild oat plant response rating (0 to 100 scale): Rate 250 g/ha
winter barley = test: Test E winter barley; format: in vivo, Hordeum vulgare; settings: Preemergence; for Barley (winter) plant response rating (0 to 100 scale): Rate 250 g/ha
[5] = Preemergence, Rate 62 g/ha, scale of 0 to 10 where 0 is no effect and 10 is complete control
[6] = Preemergence, Rate 125 g/ha, 0 is no effect, 10 is complete control
[7] = Preemergence, Rate 250 g/ha, scale 0 to 10, 0 is no effect, 10 is complete control
[8] = Preemergence, Rate 500 g/ha, scale 0 to 10 (0 no effect, 10 complete control)
[9] = Rate 62 g/ha, Postemergence, scale of 0 to 10 where 0 is no effect and 10 is complete control
[10] = Rate 125 g/ha, Postemergence, scale 0 to 10
[11] = Rate 500 g/ha, Postemergence, scale 0 to 10
[12] = Rate 500 g/ha, Postemergence, scale 0 to 10, 0 no effect, 10 complete control
[13] = Rate 62 g/ha, headed Pre-emergence (flood test species), scale 0 to 10 (0 no effect, 10 complete control)
[14] = Rate 125 g/ha, Pre-emergence, flood test species, scale 0 to 10 where 0 is no effect and 10 is complete control
[15] = Rate 250 g/ha, Pre-emergence, flood-test species, scale 0 to 10, 0 is no effect, 10 is complete control
[16] = Rate 500 g/ha, Pre-emergence, flood test species, scale 0 to 10 (0 no effect, 10 complete control)
[17] = Rate 500 g/ha, 0 to 100 scale, 0 is no effect, 100 is complete control
[18] = Rate 125 g/ha, 0 to 100 scale (0 no effect, 100 complete control)
[19] = Rate 500 g/ha, 0 to 100 scale where 0 is no effect and 100 is complete control
[20] = Preemergence, Rate 250 g/ha, scale of 0 to 10 where 0 is no effect and 10 is complete control
[21] = Preemergence, Rate 500 g/ha, scale of 0 to 10 where 0 is no effect and 10 is complete control
[22] = Rate 62 g/ha, Postemergence, scale 0 to 10 (0 no effect, 10 complete control)
[23] = Rate 125 g/ha, Postemergence, scale of 0 to 10 where 0 is no effect and 10 is complete control
[24] = Rate 125 g/ha, Preemergence, scale of 0 to 10 where 0 is no effect and 10 is complete control
[25] = Rate 250 g/ha, Postemergence, scale of 0 to 10 where 0 is no effect and 10 is complete control
[26] = Rate 1000 g/ha, 0 to 100 scale, 0 no effect, 100 complete control
[27] = Rate 500 g/ha, 0 to 100 scale (0 no effect, 100 complete control)

## Cc1nc(C)c(Cn2c(=O)on(C(=O)N(c3ccc(Cl)cc3)C(C)C)c2=O)s1 [Compound 191]
bedstraw; [5]
  Bedstraw plant response rating: 0
bedstraw; [6]
  Bedstraw plant response rating (0 to 10 scale): 0
bedstraw; [7]
  Bedstraw plant response rating: 0
bedstraw; [8]
  Bedstraw plant response rating: 0
bedstraw; [9]
  Bedstraw plant response rating: 0
bedstraw; [10]
  Bedstraw plant response rating: 0
bedstraw; Rate 250 g/ha, Postemergence
  Plant response rating (0 to 10; 0 is no effect, 10 is complete control), Bedstraw: 0
bedstraw; [11]
  Bedstraw plant response rating: 0
Blackgrass [1]; [5]
  Blackgrass plant response rating: 0
Blackgrass [1]; [6]
  Blackgrass plant response rating (0 to 10 scale): 0
Blackgrass [1]; [7]
  Blackgrass plant response rating: 4
Blackgrass [1]; [8]
  Blackgrass plant response rating: 6
Blackgrass [1]; [9]
  Blackgrass plant response rating: 0
Blackgrass [1]; [10]
  Blackgrass plant response rating: 0
Blackgrass [1]; Rate 250 g/ha, Postemergence
  Plant response rating (0 to 10; 0 is no effect, 10 is complete control), Blackgrass: 0
Blackgrass [1]; [11]
  Blackgrass plant response rating: 3
Surinam grass; [5]
  B. signalgrass plant response rating: 0
Surinam grass; [6]
  B. signalgrass plant response rating (0 to 10 scale): 0
Surinam grass; [7]
  B. signalgrass plant response rating: 0
Surinam grass; [8]
  B. signalgrass plant response rating: 3
Surinam grass; [9]
  B. signalgrass plant response rating: 0
Surinam grass; Rate 125 g/ha, Postemergence, scale 0 (no effect) to 10 (complete control)
  B. signalgrass plant response rating: 0
Surinam grass; Rate 250 g/ha, Postemergence, scale 0 to 10, 0 is no effect, 10 is complete control
  Plant response rating, B. signalgrass: 0
Surinam grass; [12]
  B. signalgrass plant response rating: 1
Smallflower flatsedge; [13]
  S. Flatsedge plant response rating: 0
Smallflower flatsedge; [14]
  S. Flatsedge plant response rating: 0
Smallflower flatsedge; [15]
  S. Flatsedge plant response rating: 0
Smallflower flatsedge; [16]
  S. Flatsedge plant response rating: 0
Winter wheat [2]; Rate 125 g/ha, 0 to 100 scale
  Plant response rating, Wheat (winter): 30
Winter wheat [2]; [17]
  Plant response rating, Wheat (winter): 60
Blackgrass [3]; [18]
  Plant response rating, Blackgrass: 10
Blackgrass [3]
  Blackgrass plant response rating (0 to 100 scale): 20
Blackgrass [3]; [19]
  Plant response rating, Blackgrass: 30
Green foxtail; [18]
  Plant response rating, Green foxtail: 30
Green foxtail
  Green foxtail plant response rating (0 to 100 scale): 40
Green foxtail; [19]
  Plant response rating, Green foxtail: 50
Italian ryegrass; [18]
  Plant response rating, I. Ryegrass: 0
Italian ryegrass
  I. Ryegrass plant response rating (0 to 100 scale): 0
Italian ryegrass; [19]
  Plant response rating, I. Ryegrass: 30
Winter wheat [4]; [18]
  Plant response rating, Wheat (winter): 10
Winter wheat [4]
  Wheat (winter) plant response rating (0 to 100 scale): 30
Winter wheat [4]; [19]
  Plant response rating, Wheat (winter): 50
Wild oat; [18]
  Plant response rating, Wild oat: 30
Wild oat
  Wild oat plant response rating (0 to 100 scale): 40
Wild oat; [19]
  Plant response rating, Wild oat: 50
Winter barley; [18]
  Plant response rating, Barley (winter): 10
Winter barley
  Barley (winter) plant response rating (0 to 100 scale): 30
Winter barley; [19]
  Plant response rating, Barley (winter): 20

## CC(C)N(C(=O)n1oc(=O)n(C2CCCC2)c1=O)c1ccc(F)cc1F [Compound 284]
bedstraw; [5]
  Bedstraw plant response rating: 0
bedstraw; [20]
  Bedstraw plant response rating: 8
bedstraw; [21]
  Plant response rating, Bedstraw: 8
bedstraw; [22]
  Bedstraw plant response rating: 2
bedstraw; [23]
  Bedstraw plant response rating: 5
bedstraw; [24]
  Bedstraw plant response rating: 8
bedstraw; [25]
  Plant response rating, Bedstraw: 6
bedstraw; [12]
  Bedstraw plant response rating: 9
Blackgrass [1]; [5]
  Blackgrass plant response rating: 0
Blackgrass [1]; [20]
  Blackgrass plant response rating: 8
Blackgrass [1]; [21]
  Plant response rating, Blackgrass: 10
Blackgrass [1]; [22]
  Blackgrass plant response rating: 3
Blackgrass [1]; [23]
  Blackgrass plant response rating: 5
Blackgrass [1]; [24]
  Blackgrass plant response rating: 4
Blackgrass [1]; [25]
  Plant response rating, Blackgrass: 7
Blackgrass [1]; [12]
  Blackgrass plant response rating: 8
Surinam grass; [5]
  B. signalgrass plant response rating: 5
Surinam grass; [20]
  B. signalgrass plant response rating: 5
Surinam grass; [21]
  Plant response rating, B. signalgrass: 8
Surinam grass; [22]
  B. signalgrass plant response rating: 0
Surinam grass; [23]
  B. signalgrass plant response rating: 0
Surinam grass; [24]
  B. signalgrass plant response rating: 5
Surinam grass; [25]
  Plant response rating, B. signalgrass: 0
Surinam grass; [12]
  B. signalgrass plant response rating: 1
Smallflower flatsedge; [13]
  S. Flatsedge plant response rating: 0
Smallflower flatsedge; [14]
  S. Flatsedge plant response rating: 0
Smallflower flatsedge; [15]
  S. Flatsedge plant response rating: 0
Smallflower flatsedge; [16]
  S. Flatsedge plant response rating: 0
Winter wheat [2]; Rate 1000 g/ha, 0 to 100 scale where 0 is no effect and 100 is complete control
  Plant response rating, Wheat (winter): 85
Winter wheat [2]; Rate 250 g/ha, 0 to 100 scale where 0 is no effect and 100 is complete control
  Wheat (winter) plant response rating: 60
Winter wheat [2]; [17]
  Plant response rating, Wheat (winter): 20
Blackgrass [3]
  Blackgrass plant response rating (0 to 100 scale): 65
Blackgrass [3]; [26]
  Plant response rating, Blackgrass: 70
Green foxtail
  Green foxtail plant response rating (0 to 100 scale): 100
Green foxtail; [27]
  Plant response rating, Green foxtail: 100
Green foxtail; [26]
  Plant response rating, Green foxtail: 100
Italian ryegrass
  I. Ryegrass plant response rating (0 to 100 scale): 85
Italian ryegrass; [27]
  Plant response rating, I. Ryegrass: 70
Italian ryegrass; [26]
  Plant response rating, I. Ryegrass: 85
Winter wheat [4]
  Wheat (winter) plant response rating (0 to 100 scale): 70
Winter wheat [4]; [27]
  Plant response rating, Wheat (winter): 70
Winter wheat [4]; [26]
  Plant response rating, Wheat (winter): 80
Wild oat
  Wild oat plant response rating (0 to 100 scale): 70
Wild oat; [27]
  Plant response rating, Wild oat: 60
Wild oat; [26]
  Plant response rating, Wild oat: 70
Winter barley
  Barley (winter) plant response rating (0 to 100 scale): 50
Winter barley; [27]
  Plant response rating, Barley (winter): 30
Winter barley; [26]
  Plant response rating, Barley (winter): 60
